C1=Cc2cccc3cccc1c23 [acenaphthylene]
Crystal
Conditions | vapor or sublimation pressure [kPa]
297.4 K | 0.000488
297.6 K | 0.000531
304.6 K | 0.00105
304.7 K | 0.00108
306.7 K | 0.00114
311.9 K | 0.00182
314.8 K | 0.00345
318.5 K | 0.00345
318.6 K | 0.00347
319.7 K | 0.00414

c1ccc2c(c1)-c1cccc3cccc-2c13 [fluoranthene]
Crystal
Conditions | vapor or sublimation pressure [kPa]
326.8 K | 3.96e-05
326.9 K | 4.11e-05
331 K | 6.16e-05
331.8 K | 6.32e-05
336.7 K | 0.000117
338.7 K | 0.000129
338.8 K | 0.000131
338.9 K | 0.000144
340.2 K | 0.000154
342.5 K | 0.000206
343.9 K | 0.000248
345.3 K | 0.000258
348 K | 0.00033
348.5 K | 0.000341
350.9 K | 0.000463
354.1 K | 0.00058
359.2 K | 0.00105

c1ccc2c(c1)cc1ccc3cccc4ccc2c1c34 [benzo[a]pyrene]
Crystal
Conditions | vapor or sublimation pressure [kPa]
392.3 K | 7.31e-05
393.5 K | 7.96e-05
397.8 K | 0.000129
400.8 K | 0.000167
402.3 K | 0.00018
405.2 K | 0.000217
406.6 K | 0.000273
411.5 K | 0.000394
411.8 K | 0.000418
415.1 K | 0.000494
415.5 K | 0.000537
419 K | 0.000697
419.7 K | 0.000733
421.2 K | 0.000785
423.8 K | 0.00098
423.9 K | 0.00102

c1ccc2c(c1)c1ccccc1c1ccccc21 [triphenylene]
Crystal
Conditions | vapor or sublimation pressure [kPa]
368.4 K | 1.7e-05
377.4 K | 4.48e-05
377.7 K | 4.51e-05
378 K | 4.64e-05
386.7 K | 0.000116
390.7 K | 0.000178
394.9 K | 0.000264
395 K | 0.000258
399.1 K | 0.000375

c1cc2ccc3cccc4ccc(c1)c2c34 [pyrene]
Crystal
Conditions | vapor or sublimation pressure [kPa]
322 K | 8.95e-06
337.1 K | 5.31e-05
342.1 K | 9.43e-05
347.1 K | 0.000147
352.3 K | 0.000227
356.8 K | 0.000339
362.1 K | 0.000599
372 K | 0.0013
381.4 K | 0.00281

c1cc2cccc3c4cccc5cccc(c(c1)c23)c54 [perylene]
Crystal
Conditions | vapor or sublimation pressure [kPa]
390 K | 1.37e-05
390.5 K | 1.47e-05
391.2 K | 1.49e-05
393.7 K | 2.15e-05
397.7 K | 3.15e-05
398.3 K | 3.03e-05
402.2 K | 4.58e-05
402.8 K | 4.76e-05
403.7 K | 5.19e-05
405.7 K | 6.67e-05
406.6 K | 7.2e-05
406.8 K | 7.03e-05
410.5 K | 0.0001
411.3 K | 0.000102
412.7 K | 0.000132
413.4 K | 0.000142
414.4 K | 0.000148
418.4 K | 0.000196
428.6 K | 0.000443
432.4 K | 0.000606

c1ccc2c(c1)ccc1c3ccccc3ccc21 [chrysene]
Crystal 2
Conditions | vapor or sublimation pressure [kPa]
372.4 K | 1.74e-05
380.7 K | 3.72e-05
385.2 K | 5.37e-05
389.2 K | 7.61e-05
389.4 K | 7.5e-05
393.6 K | 0.000103
394.2 K | 0.000136
396.1 K | 0.000148
398.1 K | 0.000168
398.2 K | 0.000158
400 K | 0.000202
400.4 K | 0.000212
402.8 K | 0.000263
403 K | 0.000254
404.8 K | 0.000277
404.9 K | 0.000292
405.1 K | 0.000306
406.8 K | 0.000336
408.6 K | 0.000379

c1ccc2cc3ccccc3cc2c1 [anthracene]
Crystal
Conditions | vapor or sublimation pressure [kPa]
322.2 K | 1.6e-05
327 K | 2.6e-05
329.1 K | 3.33e-05
333.4 K | 4.91e-05
336.3 K | 7.2e-05
338.7 K | 9.43e-05
340.4 K | 0.00011
341.2 K | 0.000119
342.3 K | 0.000131
343.6 K | 0.000141
344.2 K | 0.000164
346.4 K | 0.000192
348.2 K | 0.00026

c1ccc2c(c1)Cc1ccccc1-2 [fluorene]
Crystal
Conditions | vapor or sublimation pressure [kPa]
298 K | 6.61e-05
298.1 K | 6.52e-05
299.8 K | 8.4e-05
301.4 K | 9.88e-05
304.3 K | 0.000141
306.6 K | 0.000178
306.9 K | 0.000195
308.1 K | 0.000218
309.8 K | 0.000261
311.2 K | 0.000301
314.3 K | 0.000414
316 K | 0.00046
316.5 K | 0.000531
317.3 K | 0.000581
317.6 K | 0.000613
320.3 K | 0.00076
324.4 K | 0.00127

c1cc2c3c(cccc3c1)CC2 [acenaphthene]
Crystal
Conditions | vapor or sublimation pressure [kPa]
297.6 K | 0.00029
299.7 K | 0.000362
300.5 K | 0.000413
301.6 K | 0.00044
302.8 K | 0.000508
306.1 K | 0.000693
310.7 K | 0.00112
315.6 K | 0.0018

— the NIST ThermoML archive (doi:10.1021/je7005133)
